# Results: patent publication US20190382827A1, “USE OF MICROBIAL METABOLITES FOR TREATING DISEASES” (Yeda Research and Development Co. Ltd., priority 2015, published 2019)
# Columns and labels:
# [1] = target: T1, colonic NLRP6 inflammasome (Mus musculus, UniProt Q91WS2); assay: Metabolites in the drinking water of mice, colonic inflammasome readouts; assay type: in vivo; settings: for colonic lamina propria hematopoietic cell populations: WT mice drinking for 14 days, FACS; for colonic caspase-1 activation (activated caspase-1 levels): WT mice, drinking water for 14 days
# T1 construct: in colon tissue obtained from WT mice drinking taurine for 14 days; from tissue; host or cells: colon of living WT mice (SPF for A4; germ-free for A5)
# T1 sequence (Q91WS2 1-869): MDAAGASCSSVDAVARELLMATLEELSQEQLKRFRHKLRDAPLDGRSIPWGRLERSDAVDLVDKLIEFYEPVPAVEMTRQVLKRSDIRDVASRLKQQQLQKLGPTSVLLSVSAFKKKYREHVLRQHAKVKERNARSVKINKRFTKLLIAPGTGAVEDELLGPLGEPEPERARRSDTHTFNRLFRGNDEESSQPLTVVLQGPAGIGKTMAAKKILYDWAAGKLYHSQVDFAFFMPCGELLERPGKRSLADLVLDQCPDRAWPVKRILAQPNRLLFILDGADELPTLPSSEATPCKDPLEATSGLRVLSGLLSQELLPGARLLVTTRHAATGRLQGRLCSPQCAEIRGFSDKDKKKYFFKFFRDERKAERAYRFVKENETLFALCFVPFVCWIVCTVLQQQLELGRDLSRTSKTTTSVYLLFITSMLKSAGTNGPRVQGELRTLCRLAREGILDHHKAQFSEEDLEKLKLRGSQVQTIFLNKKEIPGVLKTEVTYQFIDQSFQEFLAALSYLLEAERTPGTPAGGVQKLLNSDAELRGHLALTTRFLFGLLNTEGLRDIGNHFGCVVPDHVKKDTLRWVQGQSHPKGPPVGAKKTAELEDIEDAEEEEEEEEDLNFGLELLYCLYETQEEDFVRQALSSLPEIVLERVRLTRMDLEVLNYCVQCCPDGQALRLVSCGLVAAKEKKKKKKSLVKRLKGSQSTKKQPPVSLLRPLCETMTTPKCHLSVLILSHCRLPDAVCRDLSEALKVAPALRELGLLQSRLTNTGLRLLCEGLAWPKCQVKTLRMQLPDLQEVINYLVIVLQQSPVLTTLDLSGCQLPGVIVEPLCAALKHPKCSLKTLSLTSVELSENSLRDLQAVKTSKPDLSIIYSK
# Source text: (A, B) Immunoblot analysis (A) and quantification (B) of pro-caspase-1 (p45) and cleaved caspase-1 (p20) in colon tissue obtained from WT mice drinking taurine for 14 days.
# (C) IL-18 production by colon explants obtained from WT mice drinking taurine for 14 days.
# (D) Ang4 expression in sorted epithelial cells (CD45^−EpCAM^+) obtained from WT mice drinking taurine for 14 days.
# (I) IL-18 production by colon explants from WT, Asc^−/− or Nlrp6^−/− mice drinking taurine for 14 days.
# (J, K) Immunoblot analysis (J) and quantification (K) of pro-caspase-1 (p45) and cleaved caspase-1 (p20) in colon tissue obtained from WT mice drinking histamine with or without spermine for 14 days.
# Colons were excised and washed thoroughly with PBS, homogenized in RIPA buffer containing protease inhibitors, incubated for 20 min in 4° C. and centrifuged for 20 min, 14,000 rpm at 4° C. Samples were separated on 15% acrylamide gels and transferred onto nitrocellulose membranes. Western blot analysis was performed using anti-caspase 1 p20 polyclonal antibody (Adipogen, AG-20B-0042B-C100) and Goat anti mouse antibody (Jackson ImmunoResearch, 115-035-003). Band density was calculated using ImageJ software.
# Concentrations of IL-18 in the serum or culture supernatants were measured using ELISA. Plates were coated over night with IL-18 (MBL, B004-2), incubated for 4 hours with supernatant or serum. Samples were then washed and plates were incubated with anti-mouse IL-18-biotin antibody (D048-6 MBL) for 1 hour and HRP-Avidin (BioLegend) for 1 hour before quantification.
# Tissues were preserved in RNAlater solution (Ambion) and subsequently homogenized in Tri Reagent (Fox et al.). RNA was purified according to the manufacturer's instructions. Two microgram of total RNA was used to generate cDNA (HighCapacity cDNA Reverse Transcription kit; Applied Biosystems). RealTime-PCR was performed using gene-specific primer/probe sets (Applied Biosystems) and Kapa Probe Fast qPCR kit (Kapa Biosystems) on a Viia7 instrument (Applied Biosystems). PCR conditions were 95° C. for 20 s, followed by 40 cycles of 95° C. for 3 s and 60° C. for 30 s. Data were analyzed using the deltaCt method with hprt serving as the reference housekeeping gene.
# To provide in-vivo validation to the above metabolite activities and to further characterize their effects on the host-microbiome interface, we administered taurine to mice in the drinking water. […] To test this notion directly, either LPS (a known ‘signal I’), taurine, or both were administered to GF WT mice. […] In contrast to taurine, in-vivo administration of histamine and spermine reduced the levels of activated caspase-1 (FIGS. 6J and 6K), while not altering the composition of hematopoietic cells in the lamina propria (FIG. 13D).
# NLRP6 inflammasome = settings: for taurine-mediated increase in IL-18 production: organoids, histamine and spermine supplemented in addition to taurine
# Experimental: (I, J) IL-18 production by WT (I) and Nlrp6^−/− (J) colonic organoids incubated with either taurine or taurine+histamine+spermine.
# (K) Representative organoid images from experiments shown in (I) and (J).
# colon explants = assay type: cell-based, mouse
# Experimental: (F) FACS quantification of propidium iodide positive cells obtained from colon explants incubated for 10 hrs with PBS or taurine.
# (F) FACS quantification of propidium iodide positive cells obtained from colon explants incubated for 10 hrs with either PBS, spermine or histamine.
Structure (SMILES),IL-18 induction ([1]; Asc-/- or Nlrp6-/- mice drinking taurine for 14 days),colonic lamina propria hematopoietic cell populations [1],colonic caspase-1 activation (activated caspase-1 levels) [1],IL-18 secretion ([1]; colon explants from WT mice drinking for 14 days),IL-18 mRNA levels ([1]; colon of WT mice drinking for 14 days),epithelial Ang4 production ([1]; sorted epithelial cells from WT mice drinking for 14 days),organoid (spheroid) growth or morphology (NLRP6 inflammasome),IL-18 secretion (NLRP6 inflammasome; WT organoids),taurine-mediated increase in IL-18 production (NLRP6 inflammasome),cell death (colon explants)
NCCS(=O)(=O)O [taurine],no IL-18 induction,not accompanied by alterations,marked activation,marked activation,not affecting,marked activation,not affecting,induced,,
NCCc1c[nH]cn1 [histamine],,not altering,reduced,,,,not affecting,,diminished,no change
NCCCNCCCCNCCCN [spermine],,not altering,reduced,,,,not affecting,,diminished,no change
